Earlier results in US10561609B2, “Antiviral compositions” (The University of Liverpool, priority 2010, dated 2020).
Where a name gives a salt, the structure may show the parent alone.

Details: according to M. Fardis and R. Oliyai; same value restated in g/L

water solubility: 13.4 mg/mL
SMILES: CC(C)OC(=O)OCOP(=O)(CO[C@H](C)Cn1cnc2c(N)ncnc21)OCOC(=O)OC(C)C [tenofovir disoproxil fumarate]
